Measurements from patent US7384931B2, “Constrained compounds as CGRP-receptor antagonists” (Bristol-Myers Squibb Company, priority 2004, dated 2008).
Counter-ions that a name gives are not always drawn.

Biological target: CGRP receptor (Homo sapiens, UniProt O60894+Q16602)
Experiment: CGRP radioligand binding assay ([125I]-CGRP displacement, SK-N-MC homogenate)
Design: endogenous in cells; host or cells: SK-N-MC cells (homogenate/membrane pellet)
Conditions: displacement of [125I]-CGRP, room temperature 2 h
Experimental: CGRP Binding Assay. Tissue Culture. SK—N-MC cells were grown at 37° C. in 5% CO2 as a monolayer in medium consisting of MEM with Earle's salts and L-glutamine (Gibco) supplemented with 10% fetal bovine serum (Gibco). Cell Pellets. The cells were rinsed twice with phosphate-buffered saline (155 mM NaCl, 3.3 mM Na2HPO4, 1.1 mM KH2PO4, pH 7.4), and incubated for 5-10 min. at 4° C. in hypotonic lysis buffer consisting of 10 mM Tris (pH 7.4) and 5 mM EDTA. The cells were transferred from plates to polypropylene tubes (16×100 mm) and homogenized using a polytron. Homogenates were centrifuged at 32,000×g for 30 min. The pellets were resuspended in cold hypotonic lysis buffer with 0.1% mammalian protease inhibitor cocktail (Sigma) and assayed for protein concentration. The SK—N-MC homogenate was then aliquoted and stored at −80° C. until needed.
Radioligand Binding Assay. The compounds of invention were solubilized and carried through serial dilutions using 100% DMSO. Aliquots from the compound serial dilutions were further diluted 25 fold into assay buffer (50 mM Tris-Cl pH 7.5, 5 mM MgCl2, 0.005% Triton X-100) and transferred (volume 50 μl) into 96 well assay plates. [^125I]-CGRP (Amersham Biosciences) was diluted to 60 pM in assay buffer and a volume of 50 μl was added to each well. SK—N-MC pellets were thawed, diluted in assay buffer with fresh 0.1% mammalian protease inhibitor cocktail (Sigma), and homogenized again. SK—N-MC homogenate (5 μg/well) was added in a volume of 100 μl. The assay plates were then incubated at room temperature for 2 h. Assays were stopped by addition of excess cold wash buffer (20 mM Tris-Cl pH 7.5, 0.1% BSA) immediately followed by filtration over glass fiber filters (Whatman GF/B) previously soaked in 0.5% PEI. Non-specific binding was defined with 1 μM beta-CGRP. Protein bound radioactivity was determined using a gamma or scintillation counter. The IC50 was defined as the concentration of a compound of invention required to displace 50% of radioligand binding.

Sequence of CGRP receptor (Q16602 23-461): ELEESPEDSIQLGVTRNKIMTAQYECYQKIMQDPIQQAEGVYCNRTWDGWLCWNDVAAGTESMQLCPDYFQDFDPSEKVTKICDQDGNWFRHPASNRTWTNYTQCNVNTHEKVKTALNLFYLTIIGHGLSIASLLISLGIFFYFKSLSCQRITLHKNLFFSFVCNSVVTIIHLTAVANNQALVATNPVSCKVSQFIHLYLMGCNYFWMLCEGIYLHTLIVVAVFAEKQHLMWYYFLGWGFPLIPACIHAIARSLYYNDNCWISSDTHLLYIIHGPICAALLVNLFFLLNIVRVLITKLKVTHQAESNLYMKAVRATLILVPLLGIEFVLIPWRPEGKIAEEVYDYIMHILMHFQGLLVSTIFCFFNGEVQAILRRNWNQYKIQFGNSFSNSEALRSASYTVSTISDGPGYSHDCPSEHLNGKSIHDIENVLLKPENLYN
Sequence of CGRP receptor (O60894 27-148): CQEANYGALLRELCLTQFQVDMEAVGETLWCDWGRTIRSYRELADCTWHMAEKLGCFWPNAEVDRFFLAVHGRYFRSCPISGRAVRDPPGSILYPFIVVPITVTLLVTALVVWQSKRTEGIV

IC50 [nM] | Structure (SMILES)
10 to 100 | CC(C)(C)CN1Cc2c(cc(Cl)c3[nH]ncc23)C[C@@H](CC(=O)N2CCC(c3nc4ccccc4[nH]c3=O)CC2)C1=O [Example 48, (S)-4-Chloro-9-neopentyl-7-(2-oxo-2-(4-(3-oxo-3,4-dihydroquinoxalin-2-yl)piperidin-1-yl)ethyl)-6,7,9,10-tetrahydroazepino[3,4-e]indazol-8(3H)-one]
0.1 to 10 | O=C(C[C@@H]1Cc2cc(Cl)c3[nH]ncc3c2CN(Cc2ccncc2)C1=O)N1CCC(c2cc3cccc(F)c3[nH]c2=O)CC1 [Example 51, (S)-4-Chloro-7-(2-(4-(8-fluoro-2-oxo-1,2-dihydroquinolin-3-yl)piperidin-1-yl)-2-oxoethyl)-9-(pyridin-4-ylmethyl)-6,7,9,10-tetrahydroazepino[3,4-e]indazol-8(3H)-one]
100 to 1000 | Cc1cc2c(cc1N)CN(Cc1ccccc1)C(=O)[C@H](NC(=O)N1CCC(N3Cc4ccccc4NC3=O)CC1)C2 [Example 55, (R)-N-(8-Amino-2-benzyl-7-methyl-3-oxo-2,3,4,5-tetrahydro-1H-benzo[c]azepin-4-yl)-4-(2-oxo-1,2-dihydroquinazolin-3(4H)-yl)piperidine-1-carboxamide trifluoroacetate]
100 to 1000 | Cc1c(N)ccc2c1CN(Cc1ccccc1)C(=O)[C@H](NC(=O)N1CCC(N3Cc4ccccc4NC3=O)CC1)C2 [Example 56, trifluoroacetate]
100 to 1000 | O=C(N[C@@H]1Cc2ccc3[nH]ncc3c2CN(C2CCNC2)C1=O)N1CCC(N2Cc3ccccc3NC2=O)CC1 (stereo partly drawn) [Example 63, 4-(2-oxo-1,2-dihydroquinazolin-3(4H)-yl)-N-((R)-8-oxo-9-(pyrrolidin-3-yl)-3,6,7,8,9,10-hexahydroazepino[3,4-e]indazol-7-yl)piperidine-1-carboxamide]
> 1000 | CC(C)(C)CN1Cc2c(ccc3[nH]ncc23)C[C@@H](CCN2CCC(N3Cc4ccccc4NC3=O)CC2)C1=O [Example 64, (S)-9-neopentyl-7-(2-(4-(2-oxo-1,2-dihydroquinazolin-3(4H)-yl)piperidin-1-yl)ethyl)-6,7,9,10-tetrahydroazepino[3,4-e]indazol-8(3H)-one]
> 1000 | CC(C)(C)CN1Cc2c(ccc3[nH]ncc23)C[C@@H](NC(=O)N2CCC(c3cc(-c4ccccc4)no3)CC2)C1=O [Example 65, (R)-N-(9-neopentyl-8-oxo-3,6,7,8,9,10-hexahydroazepino[3,4-e]indazol-7-yl)-4-(3-phenylisoxazol-5-yl)piperidine-1-carboxamide]
10 to 100 | CC(C)(C)CN1Cc2c(ccc3[nH]ncc23)C[C@H](CC(=O)N2CCC(N3Cc4ccccc4NC3=O)CC2)C1=O [Example 66, 9-(2,2-dimethyl-propyl)-7-(R)-{2-oxo-2-[4-(2-oxo-1,4-dihydro-2H-quinazolin-3-yl)-piperidin-1-yl]-ethyl}-6,7,9,10-tetrahydro-3H-2,3,9-triaza-cyclohepta[e]inden-8-one]
10 to 100 | CC(C)(C)CN1Cc2c(ccc3[nH]ncc23)C[C@@H](NC(=O)N2CCC(C3Cc4ccccc4NC3=O)CC2)C1=O (stereo partly drawn) [Example 67, N-((R)-9-neopentyl-8-oxo-3,6,7,8,9,10-hexahydroazepino[3,4-e]indazol-7-yl)-4-(2-oxo-1,2,3,4-tetrahydroquinolin-3-yl)piperidine-1-carboxamide]
100 to 1000 | CC(C)(C)CN1Cc2c(ccc3[nH]ncc23)C[C@@H](NC(=O)N2CCN(C3Cc4ccccc4NC3=O)CC2)C1=O (stereo partly drawn) [Example 68, N-((R)-9-Neopentyl-8-oxo-3,6,7,8,9,10-hexahydroazepino[3,4-e]indazol-7-yl)-4-(2-oxo-1,2,3,4-tetrahydroquinolin-3-yl)piperazine-1-carboxamide]
10 to 100 | CC(C)(C)CN1Cc2c(ccc3[nH]ncc23)C[C@@H](NC(=O)N2CCC(N3Cc4ccccc4CC3=O)CC2)C1=O [Example 69, (R)-N-(9-Neopentyl-8-oxo-3,6,7,8,9,10-hexahydroazepino[3,4-e]indazol-7-yl)-4-(3-oxo-3,4-dihydroisoquinolin-2(1H)-yl)piperidine-1-carboxamide]
100 to 1000 | CC(C)(C)CN1Cc2c(ccc3[nH]ncc23)C[C@@H](CC(=O)N2CCC3(CC2)NC(=O)Nc2ccccc23)C1=O [Example 71, 1-[[7-(S)-9-(2,2-Dimethylpropyl)-3,6,7,8,9,10-hexahydro-8-oxoazepino[3,4-e]indazol-7-yl]acetyl]-spiro[piperidine-4,4′(1′H)-quinazolin]-2′(3′H)-one]
> 1000 | CC(C)(C)CN1Cc2c(ccc3[nH]ncc23)C[C@@H](CC(=O)N2CCC(c3cnc4ccccc4c3)CC2)C1=O [Example 72, 1-[[7-(S)-9-(2,2-Dimethylpropyl)-3,6,7,8,9,10-hexahydro-8-oxoazepino[3,4-e]indazol-7-yl]acetyl]-4-(3-quinolinyl)piperidine]
> 1000 | COc1cc2ccccc2cc1C1CCN(C(=O)C[C@@H]2Cc3cc(Cl)c4[nH]ncc4c3CN(CC(C)(C)C)C2=O)CC1 [Example 73, 1-[[7-(S)-4-choro-9-(2,2-Dimethylpropyl)-3,6,7,8,9,10-hexahydro-8-oxoazepino[3,4-e]indazol-7-yl]acetyl]-4-(3-methoxy-2-naphthalenyl)piperidine]
> 1000 | CC(C)(C)CN1Cc2c(cc(Cl)c3[nH]ncc23)C[C@@H](CC(=O)N2CCC(c3cc4ccccc4cc3O)CC2)C1=O [Example 74, 1-[[7-(S)-4-choro-9-(2,2-Dimethylpropyl)-3,6,7,8,9,10-hexahydro-8-oxoazepino[3,4-e]indazol-7-yl]acetyl]-4-(3-hydroxy-2-naphthalenyl)piperidine]
0.1 to 10 | O=C(C[C@@H]1Cc2cc(Cl)c3[nH]ncc3c2CN(CC(F)(F)F)C1=O)N1CCC(N2Cc3ccccc3NC2=O)CC1 [Example 75, 1-[[(7S)-4-Chloro-3,6,7,8,9,10-hexahydro-8-oxo-9-(2,2,2-trifluoroethly)azepino[3,4-e]indazol-7-yl]acetyl]-4-(1,4-dihydro-2-oxo-3(2H)-quinazolinyl)-piperidine]
10 to 100 | CC(C)(C)CN1Cc2c(cc(Cl)c3[nH]ncc23)C[C@@H](CC(=O)N2CCC(C3C(=O)c4ccccc4NS3(=O)=O)CC2)C1=O (stereo partly drawn) [Example 76, 1-[[7-(S)-4-choro-9-(2,2-Dimethylpropyl)-3,6,7,8,9,10-hexahydro-8-oxoazepino[3,4-e]indazol-7-yl]acetyl]-4-(3,4-dihydro-2,2-dioxido-4-oxo-1H-2,1-benzothiazin-3-yl)piperidine]
0.1 to 10 | CC(C)(C)CN1Cc2c(cc(Cl)c3[nH]ncc23)C[C@@H](CC(=O)N2CCC(N3Cc4cccnc4NC3=O)CC2)C1=O [Example 78]
0.1 to 10 | CC(C)(C)CN1Cc2c(cc(Cl)c3[nH]ncc23)C[C@@H](CC(=O)N2CCC(c3cc4cccnc4[nH]c3=O)CC2)C1=O [Example 79, 1-[[(7S)-4-chloro-9-(2,2-dimethylpropyl)-3,6,7,8,9,10-hexahydro-8-oxoazepino[3,4-e]indazol-7-yl]acetyl]-4-(1,2-dihydro-2-oxo-1,8-naphthyridin-3-yl)-piperidine]
0.1 to 10 | O=C(C[C@@H]1Cc2cc(Cl)c3[nH]ncc3c2CN(Cc2ccncc2)C1=O)N1CCC(c2cc3ccccc3c[n+]2[O-])CC1 [Example 82]
100 to 1000 | O=C(C[C@@H]1Cc2cc(Cl)c3[nH]ncc3c2CN(Cc2ccncc2)C1=O)N1CCC(c2ccc(-c3ccccc3)c[n+]2[O-])CC1 [Example 83, (S)-1-[[(7S)-4-chloro-3,6,7,8,9,10-hexahydro-8-oxo-9-(4-pyridinylmethyl)azepino[3,4-e]indazol-7-yl]acetyl]-4-(1-oxido-5-phenyl-2-pyridinyl)-piperidine]
100 to 1000 | CC(C)(C)CN1Cc2c(cc(Cl)c3[nH]ncc23)C[C@@H](CC(=O)N2CCC(c3ccc(-c4ccccc4)c[n+]3[O-])CC2)C1=O [Example 84, (S)-1-[[(7S)-4-chloro-9-(2,2-dimethylpropyl)-3,6,7,8,9,10-hexahydro-8-oxoazepino[3,4-e]indazol-7-yl]acetyl]-4-(1-oxido-5-phenyl-2-pyridinyl)-piperidine]
0.1 to 10 | CC(C)(C)CN1Cc2c(ccc3[nH]ncc23)CC(N/C(=N/C#N)N2CCC(N3Cc4ccccc4NC3=O)CC2)C1=O (stereo not drawn) [Example 88, (E, Z)-N′-cyano-N-(9-neopentyl-8-oxo-3,6,7,8,9,10-hexahydroazepino[3,4-e]indazol-7-yl)-4-(2-oxo-1,2-dihydroquinazolin-3(4H)-yl)piperidine-1-carboxamidine]
0.1 to 10 | O=C(C[C@@H]1Cc2cc(Cl)c3[nH]ncc3c2CN(CC(F)(F)F)C1=O)N1CCC(c2cc3cccnc3[nH]c2=O)CC1 [Example 89, (S)-4-chloro-7-(2-oxo-2-(4-(2-oxo-1,2-dihydro-1,8-naphthyridin-3-yl)piperidin-1-yl)ethyl)-9-(2,2,2-trifluoroethyl)-6,7,9,10-tetrahydroazepino[3,4-e]indazol-8(3H)-one]
